Data on seven compounds can be found in patent publication US11530218B2, “Spiro compounds as inhibitors of KRAS” (Incyte Corporation, priority 2020, dated 2022).

Molecules are shown by their SMILES. pIC50: −log10 of the molar value. Some results are limits rather than exact numbers.

Experiment [1] deals with KRAS G12D (A427, HPAF-II cells). As to the kind of experiment: KRAS_G12D cellular pERK HTRF assay. Type of experiment: cell-based. As to conditions: cells incubated with compound 2 hours; read-out: G12D_pERK (KRAS_G12D pERK assay IC50). As for the experimental part:
(§1) MIA PaCa-2 (KRAS G12C; ATCC® CRL-1420), A427 (KRAS G12D; ATCC® HTB53), HPAF-II (KRAS G12D; ATCC® CRL-1997) and NCI-H838 (KRAS WT; ATCC® CRL-5844) cells are purchased from ATCC and maintained in RPMI 1640 media supplemented with 10% FBS (Gibco/Life Technologies). The cells are plated at 5000 cells per well (8 uL) into Greiner 384-well low volume, flat-bottom, tissue culture treated white plates and incubated overnight at 37° C., 5% CO2. The next morning, test compound stock solutions are diluted in media at 3x the final concentration, and 4 uL are added to the cells. The plate is mixed by gentle rotation for 30 seconds (250 rpm) at room temperature. The cells are incubated with the KRAS G12C and G12D compounds for 4 hours or 2 hours respectively at 37° C., 5% CO2.
(§2) 4 uL of 4× lysis buffer with blocking reagent (1:25) (Cisbio) are added to each well and plates are rotated gently (300 rpm) for 30 minutes at room temperature. 4 uL per well of Cisbio anti Phospho-ERK 1/2 d2 is mixed with anti Phospho-ERK 1/2 Cryptate (1:1) are added to each well, mixed by rotation and incubated overnight in the dark at room temperature. Plates are read on the Pherastar plate reader at 665 nm and 620 nm wavelengths. IC50 determination is performed by fitting the curve of inhibitor percent inhibition versus the log of the inhibitor concentration using the GraphPad Prism 7 software.

The target in experiment [2] is KRAS G12D (Homo sapiens, UniProt P01116, G12D). As to the kind of experiment: KRAS G12D GDP-GTP exchange assay (bodipy-GDP/GppNHp, SOS1). The class given is biochemical. As to conditions: bodipy loaded KRAS G12D 2.5 nM, 4 hours incubation after GppNHp-SOS1; read-out: G12D_exchange (KRAS_G12D exchange assay IC50). Here is the method:
(§3) The inhibitor potency of the exemplified compounds was determined in a fluorescence based guanine nucleotide exchange assay, which measures the exchange of bodipy-GDP (fluorescently labeled GDP) for GppNHp (Non-hydrolyzable GTP analog) to generate the active state of KRAS in the presence of SOS1 (guanine nucleotide exchange factor). Inhibitors were serially diluted in DMSO and a volume of 0.1 μL was transferred to the wells of a black low volume 384-well plate. 5 μL/well volume of bodipy-loaded KRAS G12C diluted to 5 nM in assay buffer (25 mM Hepes pH 7.5, 50 mM NaCl, 10 mM MgCl2 and 0.01% Brij-35) was added to the plate and pre-incubated with inhibitor for 2 hours at ambient temperature. Appropriate controls (enzyme with no inhibitor or with a G12C inhibitor (AMG-510)) were included on the plate. The exchange was initiated by the addition of a 5 μL/well volume containing 1 mM GppNHp and 300 nM SOS1 in assay buffer. The 10 μL/well reaction concentration of the bodipy-loaded KRAS G12C, GppNHp, and SOS1 were 2.5 nM, 500 uM, and 150 nM, respectively. The reaction plates were incubated at ambient temperature for 2 hours, a time estimated for complete GDP-GTP exchange in the absence of inhibitor. For the KRAS G12D and G12V mutants, similar guanine nucleotide exchange assays were used with 2.5 nM as final concentration for the bodipy loaded KRAS proteins and with 4 hours and 3 hours incubation after adding GppNHp-SOS1 mixture for G12D and G12V respectively. A cyclic peptide described to selectively bind G12D mutant (Sakamoto et al., BBRC 484.3 (2017), 605-611) or internal compounds with confirmed binding were used as positive controls in the assay plates. Fluorescence intensities were measured on a PheraStar plate reader instrument (BMG Labtech) with excitation at 485 nm and emission at 520 nm.
(§4) Either GraphPad prism or XLfit was used to analyze the data. The IC50 values were derived by fitting the data to a four parameter logistic equation producing a sigmoidal dose-response curve with a variable Hill coefficient. Prism equation: Y=Bottom+(Top−Bottom)/(1+10^((Log IC50−X)*Hill slope)); XLfit equation: Y=(A+((B−A)/(1+((X/C)^D)))) where X is the logarithm of inhibitor concentration and Y is the response.

In experiment [3] the target is KRAS G12C (Homo sapiens, UniProt P01116, G12C). As to the kind of experiment: KRAS G12C GDP-GTP exchange assay (bodipy-GDP/GppNHp, SOS1). The class given is biochemical. Conditions: bodipy-loaded KRAS G12C 2.5 nM, 2 hours pre-incubation with inhibitor, 2 hours exchange; read-out: G12C_exchange (KRAS_G12C exchange assay IC50). As for the experimental part:
as §3, §4

For experiment [4], the system named is KRAS G12C (MIA PaCa-2 cells). Briefly: KRAS_G12C cellular pERK HTRF assay. Type of experiment: cell-based, human. On the set-up: G12C_pERK (KRAS_G12C pERK assay IC50): scale not given here. As to conditions: cells incubated with compound 4 hours. As for the experimental part: as §1, §2

KRAS G12C, sequence (P01116 1-188 isoform P01116-2 G12C): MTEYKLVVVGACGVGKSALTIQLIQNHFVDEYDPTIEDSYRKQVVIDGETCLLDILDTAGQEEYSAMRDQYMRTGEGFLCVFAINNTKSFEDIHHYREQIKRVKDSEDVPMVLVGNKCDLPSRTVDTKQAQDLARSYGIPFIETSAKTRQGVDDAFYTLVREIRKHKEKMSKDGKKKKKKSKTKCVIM
KRAS G12D, sequence (P01116 1-188 isoform P01116-2 G12D): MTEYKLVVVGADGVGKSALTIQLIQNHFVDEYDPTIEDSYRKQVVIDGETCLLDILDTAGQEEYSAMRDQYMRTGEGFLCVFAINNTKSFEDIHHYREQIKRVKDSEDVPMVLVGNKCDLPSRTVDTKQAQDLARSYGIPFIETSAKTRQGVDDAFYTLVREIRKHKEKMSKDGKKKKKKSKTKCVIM

With `CC(C)CCN1C(=O)C2(CCCNC2)c2c1c(OC[C@@H]1CCCN1C)nc1c(F)c(-c3cc(O)cc4ccccc34)c(CCCC#N)cc21` (single isomer, unassigned) [Example 35a], the pIC50 in experiment [1] is 4.30 to 5.30; in experiment [2], not below 7.00.
As to `C=CC(=O)N1CCC2(CC1)Nc1c(cnc3c(F)c(-c4cccc5[nH]nc(C)c45)c(Cl)cc13)NC2=O` [Example 3, 1-Acryloyl-9′-chloro-7′-fluoro-8′-(3-methyl-1H-indazol-4-yl)-1′,4′-dihydro-3′H-spiro[piperidine-4,2′-pyrazino[2,3-c]quinolin]-3′-one], in experiment [3], the pIC50 is 5.30 to 6.00.
Still for that read-out and setting: in the case of `C=CC(=O)N1CCC2(CC1)Nc1c(cnc3c(F)c(-c4c(F)cccc4OC)c(Cl)cc13)NC2=O` [Example 5, 1-Acryloyl-9′-chloro-7′-fluoro-8′-(2-fluoro-6-methoxyphenyl)-1′,4′-dihydro-3′H-spiro[piperidine-4,2′-pyrazino[2,3-c]quinolin]-3′-one] it was 5.30 to 6.00.
With `C=CC(=O)N1CCC2(CC1)Nc1c(c(OC[C@@H]3CCCN3C)nc3c(F)c(-c4c(O)cccc4F)c(Cl)cc13)NC2=O` [Example 10, 1-Acryloyl-9′-chloro-7′-fluoro-8′-(2-fluoro-6-hydroxyphenyl)-5′-(((S)-1-methylpyrrolidin-2-yl)methoxy)-1′,4′-dihydro-3′H-spiro[piperidine-4,2′-pyrazino[2,3-c]quinolin]-3′-one], the negative-log IC50 (pIC50) is not below 7.00 in experiment [3] and 5.30 to 6.00 in experiment [4] (Homo sapiens, MIA PaCa-2, read-out: G12C_pERK (KRAS_G12C pERK assay IC50)).
Take `C=CC(=O)N1CCC2(CC1)Nc1c(c(OC[C@@H]3CCCN3C)nc3c(F)c(-c4cc(O)cc5ccccc45)c(Cl)cc13)NC2=O` [Example 11, 1-Acryloyl-9′-chloro-7′-fluoro-8′-(3-hydroxynaphthalen-1-yl)-5′-(((S)-1-methylpyrrolidin-2-yl)methoxy)-1′,4′-dihydro-3′H-spiro[piperidine-4,2′-pyrazino[2,3-c]quinolin]-3′-one]: the negative logarithm of the IC50 (pIC50) in experiment [3] was not below 7.00. Also, the “G12C_pERK (KRAS_G12C pERK assay IC50)” value in experiment [4] was “††”.
For `C=CC(=O)N1CCC2(CC1)C(=O)Nc1c(OC[C@@H]3CCCN3C)nc3c(F)c(-c4cc(O)cc5ccccc45)c(Cl)cc3c12` [Example 13, 1-Acryloyl-8′-chloro-6′-fluoro-7′-(3-hydroxynaphthalen-1-yl)-4′-(((S)-1-methylpyrrolidin-2-yl)methoxy)spiro[piperidine-4,1′-pyrrolo[2,3-c]quinolin]-2′(3′H)-one] the same measures were not below 7.00 and “††”.
On to `C=CC(=O)N1CCC2(CC1)CC(=O)c1cnc3c(F)c(-c4cc(O)cc5ccccc45)c(Cl)cc3c1O2` [Example 17, 1-Acryloyl-9′-chloro-7′-fluoro-8′-(3-hydroxynaphthalen-1-yl)spiro[piperidine-4,2′-pyrano[3,2-c]quinolin]-4′(3′H)-one], for which, in experiment [3], the negative logarithm of the IC50 (pIC50) was 5.30 to 6.00.
